Patent US4182897A, “Amino- or guanidino-phenylpropionic acid derivatives” (Torii & Co., Ltd., priority 1977, dated 1980)

What was measured:
proteolytic enzymes = conditions: prior art; cited from earlier work
[1] = test system: complement-dependent hemolysis of sensitized erythrocytes; assay: Antihemolytic activity (prevention of complement-dependent hemolysis); format: cell-based; conditions: Erythrocyte, 10 min; for inhibition at 100 µM: 10^-4 M
Protocol: (C) Determination of Antihemolytic Activity: Preventions of the complement-dependent hemolysis by the compounds of this invention were measured according to the method of B. R. Baker et al. [J. Med. Chem., 12, 408-414 (1969)] by the following procedure: […] The mixture was incubated at 37° C. for 10 minutes. The reaction was stopped by adding 2.7 ml of an ice-cold citrate-saline solution, and the resulting mixture was centrifuged at 3000 rpm for 3 minutes. Absorbance of the supernatant was measured at 541 nm. As the standard, GVB^2+ (gelatin veronal buffer) was substituted for the sample solution and, as the control, GVB^2+ was substituted for the complement.

Trypsin = target: T1, Trypsin (Bos taurus, UniProt P00760); assay: Inhibitory effect on ester-hydrolyzing activity of trypsin (TAMe substrate); format: biochemical; conditions: read-out: percent inhibition at 10^-3 M (trypsin)
T1 sequence (P00760 24-246): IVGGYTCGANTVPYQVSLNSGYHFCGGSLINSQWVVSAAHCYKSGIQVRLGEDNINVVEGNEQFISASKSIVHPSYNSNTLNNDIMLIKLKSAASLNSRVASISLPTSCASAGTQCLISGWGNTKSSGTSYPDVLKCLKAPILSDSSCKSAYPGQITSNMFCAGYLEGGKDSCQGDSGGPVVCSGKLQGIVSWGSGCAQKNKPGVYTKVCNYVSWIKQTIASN
Protocol: (A) Determination of Enzyme-inhibitory Activity: The enzyme-inhibitory activities in vitro of the compounds of this invention were measured by the following procedure according to the method of M. Muramatsu et al. [[…]. Makino, Y. Hayashi and S. Fujii: J. […] Then, 10 μmoles of the substrate, TAMe (tosylarginine methyl ester), was added, and incubation was performed at 37° C. for 30 minutes. After the incubation, 1.5 ml of 2 M alkaline hydroxylamine was added and thoroughly mixed, and allowed to stand at room temperature for 15 minutes.

Human Cl Esterase = target: T2, Human Cl Esterase (Homo sapiens, UniProt P09871); assay: Inhibitory effect on ester-hydrolyzing activity of human Cl esterase (ATEe substrate); format: biochemical; conditions: in vitro; acetyltyrosine ethyl ester hydrolysis; read-out: ID50 (Cl esterase)
T2 sequence (P09871 438-688 limits assumed): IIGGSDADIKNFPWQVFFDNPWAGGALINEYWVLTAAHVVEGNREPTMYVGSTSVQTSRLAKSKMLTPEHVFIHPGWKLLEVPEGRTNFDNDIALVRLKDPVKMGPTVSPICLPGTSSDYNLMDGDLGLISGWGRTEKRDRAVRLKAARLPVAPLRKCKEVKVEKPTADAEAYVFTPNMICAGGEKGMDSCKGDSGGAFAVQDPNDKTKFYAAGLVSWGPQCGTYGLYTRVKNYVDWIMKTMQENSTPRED
T2 sequence (P09871 16-437 partner limits assumed): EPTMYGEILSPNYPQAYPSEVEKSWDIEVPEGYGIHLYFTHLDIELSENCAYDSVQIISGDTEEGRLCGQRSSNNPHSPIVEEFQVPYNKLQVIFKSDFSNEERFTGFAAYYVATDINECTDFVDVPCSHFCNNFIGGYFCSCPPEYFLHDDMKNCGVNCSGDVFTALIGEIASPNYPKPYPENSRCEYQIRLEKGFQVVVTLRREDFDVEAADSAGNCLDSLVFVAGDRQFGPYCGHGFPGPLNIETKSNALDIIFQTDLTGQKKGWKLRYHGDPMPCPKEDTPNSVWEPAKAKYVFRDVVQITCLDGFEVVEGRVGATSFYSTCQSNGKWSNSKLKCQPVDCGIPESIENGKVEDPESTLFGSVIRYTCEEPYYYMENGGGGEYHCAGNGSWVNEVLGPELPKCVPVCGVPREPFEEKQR
Protocol: It was measured by using 0.1 ml of Cl esterase, 0.1 ml of 0.02 M sodium phosphate buffer solution (pH 7.4) and 10 μmoles of ATEe (acetyltyrosine ethyl ester) as substrate following the method described in (1).

Human Plasmin = Human Plasmin (Homo sapiens, UniProt P00747); assay: Inhibitory effect on ester-hydrolyzing activity of human plasmin (TAMe substrate); format: biochemical; conditions: read-out: percent inhibition at 10^-3 M (plasmin)
Human Plasmin, sequence (P00747 581-810 limits assumed): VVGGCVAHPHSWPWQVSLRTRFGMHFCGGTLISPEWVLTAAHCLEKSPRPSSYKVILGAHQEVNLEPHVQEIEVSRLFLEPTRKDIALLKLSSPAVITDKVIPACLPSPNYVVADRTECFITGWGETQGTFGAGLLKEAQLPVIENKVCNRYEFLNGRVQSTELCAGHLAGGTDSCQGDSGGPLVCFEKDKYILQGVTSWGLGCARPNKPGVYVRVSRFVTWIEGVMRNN
Human Plasmin, sequence (P00747 97-580 partner limits assumed): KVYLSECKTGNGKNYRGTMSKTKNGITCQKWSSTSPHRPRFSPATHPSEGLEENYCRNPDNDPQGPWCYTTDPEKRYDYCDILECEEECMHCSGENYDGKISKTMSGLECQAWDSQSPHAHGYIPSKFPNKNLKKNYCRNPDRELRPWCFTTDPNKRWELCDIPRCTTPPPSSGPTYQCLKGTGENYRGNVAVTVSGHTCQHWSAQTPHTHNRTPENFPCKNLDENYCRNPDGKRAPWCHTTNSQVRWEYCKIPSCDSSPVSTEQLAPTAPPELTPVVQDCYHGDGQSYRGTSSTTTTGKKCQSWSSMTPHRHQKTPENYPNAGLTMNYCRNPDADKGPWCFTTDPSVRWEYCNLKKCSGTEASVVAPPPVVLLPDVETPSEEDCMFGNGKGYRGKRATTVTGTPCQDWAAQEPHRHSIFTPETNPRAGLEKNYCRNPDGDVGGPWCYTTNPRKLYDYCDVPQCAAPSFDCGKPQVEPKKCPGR
Protocol: (A) Determination of Enzyme-inhibitory Activity: The enzyme-inhibitory activities in vitro of the compounds of this invention were measured by the following procedure according to the method of M. Muramatsu et al. [[…]. Makino, Y. Hayashi and S. Fujii: J. […] (2) Inhibitory Effect on Ester-hydrolyzing Activity of Human Plasmin It was measured by using 0.1 ml of plasmin (generated by activation of plasminogen with streptokinase) and TAMe as substrate following the method described in (1).

Bovine Thrombin = Bovine Thrombin (Bos taurus, UniProt P00735); assay: Inhibitory effect on ester-hydrolyzing activity of bovine thrombin (TAMe substrate); format: biochemical; conditions: read-out: percent inhibition at 10^-3 M (thrombin)
Protocol: (4) Inhibitory Effect on Ester-Hydrolyzing Activity of Bovine Thrombin
It was measured by using 0.4 ml of bovine thrombin […], 0.02 M sodium phosphate buffer solution (pH 7.4) and TAMe as substrate following the method described in (1).

Human Plasma Kallikrein = Human Plasma Kallikrein (Homo sapiens, UniProt P03952); assay: Inhibitory effect on ester-hydrolyzing activity of human plasma kallikrein (TAMe substrate); format: biochemical; conditions: read-out: percent inhibition at 10^-3 M (kallikrein)
Human Plasma Kallikrein, sequence (P03952 391-638 limits assumed): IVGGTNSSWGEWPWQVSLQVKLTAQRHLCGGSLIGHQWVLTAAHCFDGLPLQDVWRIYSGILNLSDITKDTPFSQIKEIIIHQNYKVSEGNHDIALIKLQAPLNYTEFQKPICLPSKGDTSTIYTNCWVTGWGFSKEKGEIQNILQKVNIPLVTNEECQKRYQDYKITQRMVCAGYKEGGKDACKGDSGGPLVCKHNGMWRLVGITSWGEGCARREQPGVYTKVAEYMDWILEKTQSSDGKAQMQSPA
Human Plasma Kallikrein, sequence (P03952 20-390 partner limits assumed): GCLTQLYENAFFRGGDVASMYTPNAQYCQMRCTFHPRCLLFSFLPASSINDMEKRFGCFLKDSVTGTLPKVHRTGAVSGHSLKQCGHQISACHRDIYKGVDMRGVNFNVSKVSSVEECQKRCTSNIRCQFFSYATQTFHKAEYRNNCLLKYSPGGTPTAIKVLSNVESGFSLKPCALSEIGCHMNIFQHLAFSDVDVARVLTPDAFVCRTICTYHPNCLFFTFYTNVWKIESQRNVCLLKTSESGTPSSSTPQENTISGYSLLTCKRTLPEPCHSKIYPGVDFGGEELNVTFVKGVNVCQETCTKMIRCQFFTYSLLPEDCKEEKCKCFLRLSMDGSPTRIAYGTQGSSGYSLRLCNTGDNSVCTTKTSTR
Protocol: (A) Determination of Enzyme-inhibitory Activity: The enzyme-inhibitory activities in vitro of the compounds of this invention were measured by the following procedure according to the method of M. Muramatsu et al. [[…]. Makino, Y. Hayashi and S. Fujii: J.

Rat Masugi Nephritis = assay: Effect on rat Masugi nephritis (urinary protein); format: in vivo, Sprague-Dawley rats
Protocol: (D) Effect on Masugi Nephritis: The effect of Compound No. 73 on Masugi nephritis was investigated according to the method of Shibata et al. [S. Shibata: Men-ekigaku, Arerugi-gaku Jikkenho (Immunology, Experimental Methods in Allergology), p. 664, (1971), Bunkodo, Tokyo]. Male sprague-Dawley rats weighing about 200 g were divided into normal group, diseased group and treated group, each consisting of 7 rats. For the purpose of inducing nephritis, 0.5 ml of anti- "rat nephritis" rabbit serum, which had been prepared according to the method of Shibata et al., was administered intravenously to rats of both diseased and treated groups. To the normal group was intravenously administered the same quantity of physiological saline. The test drug was administered intraperitoneally to rats of the treated group three times, namely two days prior to, one day prior to and on the day of administration of the antiserum. From the rats of each group, a 24 hours urine specimen was collected on the day preceding, and the 1st, 2nd, 5th, 8th and 13th days following the administration of the antiserum. Protein contents of the urine specimen were determined by the sulfosalicylic acid method.

[2] = Acute toxicity by intraperitoneal administration in mice; conditions: mouse, in vivo, ip, read-out: DL50 (acute toxicity)

| Compound | inhibitory activity to proteolytic enzymes (proteolytic enzymes) | specificity of enzyme inhibition (proteolytic enzymes) | inhibition at 100 µM [1] [%] | inhibition at 1000 µM (Trypsin) [%] | IC50 (Human Cl Esterase) [µM] | inhibition at 1000 µM (Human Plasmin) [%] | inhibition at 1000 µM (Bovine Thrombin) [%] | inhibition at 1000 µM (Human Plasma Kallikrein) [%] | other results |
| --- | --- | --- | --- | --- | --- | --- | --- | --- | --- |
| N=C(N)c1ccc(CC(=O)C(=O)O)cc1 [4-amidinophenylpyruvic acid] | inhibitory activity to proteolytic enzymes | low in specificity | – | – | – | – | – | – | – |
| CC(Cc1ccc(NC(=N)N)cc1)C(=O)Oc1cccc2ccccc12 (stereo not drawn) [compound 54, 1-naphthyl α-methyl-β-(p-guanidinophenyl)-propionate] | – | – | 49.3 | – | – | – | – | – | – |
| CCCC(Cc1cccc(NC(=N)N)c1)C(=O)Oc1ccccc1 (stereo not drawn) [compound 68, phenyl α-n-propyl-β-(m-guanidinophenyl)-propionate] | – | – | 30 | < 10 | 430 | 22 | < 10 | 17.6 | – |
| CCOC(=O)c1ccc(OC(=O)CCCCCNC(=N)N)cc1.CS(=O)(=O)O [FOY, ethyl p-(6-guanidinohexanoyloxy)benzoate methanesulfonate] | inhibitory activity to proteolytic enzymes | low in specificity | – | – | – | – | – | – | – |
| CCC(Cc1ccc(NC(=N)N)cc1)C(=O)Oc1ccccc1 (stereo not drawn) [Compound No. 73, phenyl α-ethylβ-(p-guanidinophenyl)-propionate] | – | – | 30 | 43.9 | 310 | < 10 | < 10 | 31.5 | Protein in urine (Rat Masugi Nephritis; 12.5 mg/kg i.p. x3, day 1 after antiserum): 34.0 mg/day; Protein in urine (Rat Masugi Nephritis; 12.5 mg/kg i.p. x3, day 2 after antiserum): 42.5 mg/day; Protein in urine (Rat Masugi Nephritis; 12.5 mg/kg i.p. x3, day 5 after antiserum): 45.6 mg/day; Protein in urine (Rat Masugi Nephritis; 12.5 mg/kg i.p. x3, day 8 after antiserum): 76.3 mg/day; Protein in urine (Rat Masugi Nephritis; 12.5 mg/kg i.p. x3, day 13 after antiserum): 115.5 mg/day; Protein in urine (Rat Masugi Nephritis; 12.5 mg/kg i.p. x3, day -1): 6.0 mg/day; Protein in urine (Rat Masugi Nephritis; 25.0 mg/kg i.p. x3, day 1 after antiserum): 41.1 mg/day; Protein in urine (Rat Masugi Nephritis; 25.0 mg/kg i.p. x3, day 2 after antiserum): 33.9 mg/day; Protein in urine (Rat Masugi Nephritis; 25.0 mg/kg i.p. x3, day 5 after antiserum): 39.4 mg/day; Protein in urine (Rat Masugi Nephritis; 25.0 mg/kg i.p. x3, day 8 after antiserum): 63.3 mg/day; Protein in urine (Rat Masugi Nephritis; 25.0 mg/kg i.p. x3, day 13 after antiserum): 71.5 mg/day; Protein in urine (Rat Masugi Nephritis; 25.0 mg/kg i.p. x3, day -1): 4.2 mg/day; LD50 [2]: 129 mg/kg; inhibition at 1000 µM ([1]; 10^-3 M): 69.1% |
| CCOC(=O)c1ccc(OC(=O)C(CC)Cc2ccc(NC(=N)N)cc2)cc1 (stereo not drawn) [compound 76, p-ethoxycarbonylphenylα-ethyl-β-(p-guanidinophenyl)-propionate] | – | – | 33 | – | – | – | – | – | – |
